One test concerns the target T1, Her2 kinase (Homo sapiens, UniProt P04626).
T1 construct: purchased Cell Signaling Tech #7382
As to the kind of experiment: Inhibition Activity Assay on Her2 Enzyme (ELISA, PGT substrate). The test is classed as biochemical. The note with it: 8 min at 4° C., read-out: Inhibition Activity (EC50) on Her-2. As to the method:
Inhibition Activity Assay on Her2 Enzyme
1. Her2 kinase, Cell Signaling Tech, #7382, Lot. 2, reserved at −80° C.;
2. PBST: PBS+0.05% (v/v) Tween 20;
3. Confining liquid: 3% of BSA in PBS;
4. HEPEs buffer (2×): 50 mM HEPEs, 20 mM MgCl2, 0.1 mM MnCl2, 0.2 mM Na3VO4, adjusted to pH of 7.4 with NaOH;
5. PGT, Sigma, Cat#P0275): 2 mg/ml of stock solution was prepared by dissolving PBS, reserved at −20° C.
6. ATP: […] of stock solution was prepared by dissolving ddH2O, reserved at −20° C.;
7. Mice anti-phosphorylation tyrosine-HRP: Invitrogen-037720, 0.5 mg/ml, reserved at 4° C.;
8. TMB: Cell Signaling Tech, Cat #7004L;
9. DTT: 2.5 M of stock solution was prepared with ddH2O, reserved at −20° C. Before use, 2×HEPEs buffer was added in the solution to the final concentration of 1.25 mM.
1. 2 mg/ml of PGT was diluted with PBS to 0.2 mg/ml. 60 μl of the resulting solution was added in each well. The elisa plate was placed in a refrigerator at 4° C. and coated overnight;
2. The coating solution was discarded to stop the coating. The plate was washed four times with PBS, and then beaten to dryness;
3. The elisa plate was placed in a refrigerator at 4° C., drained out and stood for 3h.
4. […] of aqueous solution of each compound was diluted with ddH2O to a desirable concentration. Then, the solution was added in the corresponding elisa well by 25 μl/well;
5. 2 nM of ATP solution was diluted with ddH2O to 25 folds and then sufficiently mixed. The resulting solution was separately added in each elisa well by 25 μl per well (25 μl ddH2O was added in the negative control);
6. Her2 kinase was diluted with 2×TKB to 800 folds. The resulting solution was added in the elisa well by 50 μl per well. Then, the enzyme reaction began. Moreover, the elisa plate was immediately placed in a micro-oscillator. The reaction is carried out for 8 min at the temperature of 4° C.;
7. 2% of SDS was added in the elisa well to stop the reaction by adding 100 μl of SDS in each well. The solution was sufficiently mixed on the micro-oscillator to sufficiently mix for about 5 min;
8. The reaction solution was sucked out. The plate was washed four times with PBST. After the plate was beaten to dryness, 0.25 μg/ml of mice anti-phosphorylation tyrosine-HRP which was diluted with confining liquid was added in the plate by 100 μl per well, and then reacted for 30 min at the room temperature.
9. The antibody reaction solution was sucked out. The plate was washed six times with PBST. After the plate was beaten to dryness, TMB peroxidase substrate was added in the plate with 100 μl/well, and then reacted in the dark for 15 min at the room temperature;
10. 100 μl of 2N H2SO4 was added in the solution to stop the chromogenic reaction. After the bubbles were cleansed, the solution was measured in elisa at 450 nm.
OD values were converted in relative inhibition ratios according to following formula: Relative inhibition ratio=[1−(experiment values−NC mean values)/(PC mean values−NC mean values)]×100%
(ELISA stands for enzyme-linked immunosorbent assay.)

Another test deals with SK-OV-3 cells. As to the kind of experiment: SK-OV-3 Cell Growth Inhibition Test (MTT Assay). The test is classed as cell-based. The note with it: Homo sapiens, 72 h incubation. As to the method: SK-OV-3 Cell Growth Inhibition Test (MTT Assay)
Cell strains: SK-OV-3 (human ovarian cancer cell strains);
Culture medium: 90% McCoy's 5A+10% FBS;
1. A plate (10 cm) of cells in logarithmic growth phase normally cultured was collected;
2. The culture solution was sucked out. The plate was washed with 5 ml of PBS 1-2 times;
3. PBS was sucked out. 1.5 ml of 0.25% pancreatin was added to infiltrate the cells for 1 min;
4. The pancreatin was sucked out. The culture plate was placed in an incubator. Digestion was carried out for about 5 min at 37° C.;
5. 4.5 ml of complete culture solution was added to the culture plate to stop the digestion.T the cells were carefully scoured with micropipette (1 ml) to give a uniform cell suspension. The suspension was implanted into a 96-well cell culture disc by 4000 cells/100 μl per well. The culture plate was incubated overnight under 5% CO2 at 37° C. In day 2, 100 μl of culture solution comprising a compound was added in each well, and further incubated for 72 h under 5% CO2 at 37° C.
6. The culture solution was sucked out;
7. 100 μl of serum-free culture solution containing 0.5 mg/ml MTT was added in each well, and incubated for 3 h;
8. The culture solution was carefully sucked out;
9. 100 μl of DMSO was added in each well and vibrated to dissolve;
10. OD values were determined at 490 nM.
1. Calculation of Relative Inhibition Ratio The inhibition ratio of a compound on cell growth=(PC−n)/(PC−NC)×100%
IC50: Concentration of a compound where inhibition ratio was 50%. IC50 values were fitted with Origin7.5.

pEC50, pIC50: −log10 of the molar value.

T1 sequence (P04626 676-1255 limits assumed): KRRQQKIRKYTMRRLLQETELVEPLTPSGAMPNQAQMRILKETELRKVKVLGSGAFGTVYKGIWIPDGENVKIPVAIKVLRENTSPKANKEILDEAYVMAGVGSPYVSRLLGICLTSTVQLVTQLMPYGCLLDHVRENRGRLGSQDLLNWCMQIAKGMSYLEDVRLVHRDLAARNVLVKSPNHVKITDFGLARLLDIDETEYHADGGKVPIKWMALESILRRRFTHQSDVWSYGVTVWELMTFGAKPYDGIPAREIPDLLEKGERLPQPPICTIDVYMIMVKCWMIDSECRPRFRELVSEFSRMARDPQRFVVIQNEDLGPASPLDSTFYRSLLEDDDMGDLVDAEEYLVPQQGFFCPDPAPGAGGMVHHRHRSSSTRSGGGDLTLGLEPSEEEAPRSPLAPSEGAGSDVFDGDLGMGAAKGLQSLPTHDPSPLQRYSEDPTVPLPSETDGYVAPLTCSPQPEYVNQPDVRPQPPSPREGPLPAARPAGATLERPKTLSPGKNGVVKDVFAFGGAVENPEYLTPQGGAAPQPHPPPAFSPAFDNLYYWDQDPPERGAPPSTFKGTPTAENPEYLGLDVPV

On to `CN(C)C/C=C/C(=O)Nc1cc2c(Nc3ccc(OCc4ccccn4)c(Cl)c3)c(C#N)cnc2cc1OC1CCOC1` (centres unmarked) [Example 21, (E)-N-(4-(3-CHLORO-4-(PYRIDIN-2-YL-METHOXY)PHENYLAMINO)-3-CYANO-7-(TETRAHYDROFURAN-3-YL-OXY)QUINOLIN-6-YL)-4-(DIMETHYLAMINO)-BUT-2-ENAMIDE], for which, on Her2 kinase, the pEC50 (usually −log10 of the EC50, conventionally taken in molar units) is 6.63.

Take `CN(C)C/C=C/C(=O)Nc1cc2c(Nc3ccc(OCc4ccccn4)c(Cl)c3)c(C#N)cnc2cc1O[C@@H]1CCOC1` [Example 139, (R,E)-N-(4-(3-CHLORO-4-(PYRIDIN-2-YL-METHOXY)PHENYLAMINO)-3-CYANO-7-(TETRAHYDROFURAN-3-YL-OXY)QUINOLIN-6-YL)-4-(DIMETHYLAMINO)-BUT-2-ENAMIDE]: the pIC50 (usually −log10 of the IC50, conventionally taken in molar units) in the test on SK-OV-3 cells is 6.43. Consider `C#Cc1cccc(Nc2c(C#N)cnc3cc(O[C@H]4CCOC4)c(NC(=O)/C=C/CN(C)C)cc23)c1` [Example 140, (S,E)-N-(3-CYANO-4-(3-ETHYNYLPHENYLAMINO)-7-(TETRAHYDROFURAN-3-YL-OXY)QUINOLIN-6-YL)-4-(DIMETHYLAMINO)-BUT-2-ENAMIDE], for which the pIC50 in the test on SK-OV-3 cells was 6.54. Also, the pEC50 at Her2 kinase was 6.96. For `CN(C)C/C=C/C(=O)Nc1cc2c(Nc3ccc(F)c(Cl)c3)c(C#N)cnc2cc1OC1CCOC1` (centres unmarked) [Example 4, (E)-N-(4-(3-CHLORO-4-FLUOROPHENYLAMINO)-3-CYANO-7-(TETRAHYDROFURAN-3-YL-OXY)QUINOLIN-6-YL)-4-(DIMETHYLAMINO)-BUT-2-ENAMIDE] the same measures were 6.39 and 6.79. Take `CN(C)C/C=C/C(=O)Nc1cc2c(Nc3ccc(OCc4ccccn4)c(Cl)c3)c(C#N)cnc2cc1O[C@H]1CCOC1` [Example 138, (S,E)-N-(4-(3-CHLORO-4-(PYRIDIN-2-YL-METHOXY)PHENYLAMINO)-3-CYANO-7-(TETRAHYDROFURAN-3-YL-OXY)QUINOLIN-6-YL)-4-(DIMETHYLAMINO)-BUT-2-ENAMIDE]: the pIC50 in the test on SK-OV-3 cells is 6.34. For the same compound, the pEC50 on Her2 kinase is 6.61. Compound `CN(C)C/C=C/C(=O)Nc1cc2c(Nc3ccc(OCc4cccc(F)c4)c(Cl)c3)c(C#N)cnc2cc1OC1CCOC1` (centres unmarked) [Example 9, (E)-N-(4-(4-(3-FLUOROBENZYLOXY)-3-CHLOROPHENYLAMINO)-3-CYANO-7-(TETRAHYDROFURAN-3-YL-OXY)QUINOLIN-6-YL)-4-(DIMETHYLAMINO)-BUT-2-ENAMIDE] showed a pIC50 with SK-OV-3 cells of 6.33. Moreover, the pEC50 on Her2 kinase is 6.66. Turning to `C#Cc1cccc(Nc2c(C#N)cnc3cc(OC4CCOC4)c(NC(=O)/C=C/CN(C)C)cc23)c1` (centres unmarked) [Example 5, (E)-N-(3-CYANO-4-(3-ETHYNYLPHENYLAMINO)-7-(TETRAHYDROFURAN-3-YL-OXY)QUINOLIN-6-YL)-4-(DIMETHYLAMINO)-BUT-2-ENAMIDE], the pIC50 with SK-OV-3 cells is 6.71. The pEC50 on Her2 kinase was 7.02. `C#Cc1cccc(Nc2c(C#N)cnc3cc(O[C@@H]4CCOC4)c(NC(=O)/C=C/CN(C)C)cc23)c1` [Example 141, (R,E)-N-(3-CYANO-4-(3-ETHYNYLPHENYLAMINO)-7-(TETRAHYDROFURAN-3-YL-OXY)QUINOLIN-6-YL)-4-(DIMETHYLAMINO)-BUT-2-ENAMIDE] gave a pIC50 in the test with SK-OV-3 cells of 6.55. For the compound `CN(C)C/C=C/C(=O)Nc1cc2c(Nc3ccc(F)c(Cl)c3)c(C#N)cnc2cc1O[C@H]1CCOC1` [Example 142, (S,E)-N-(4-(3-CHLORO-4-FLUOROPHENYLAMINO)-3-CYANO-7-(TETRAHYDROFURAN-3-YL-OXY)QUINOLIN-6-YL)-4-(DIMETHYLAMINO)-BUT-2-ENAMIDE], the pIC50 in the test with SK-OV-3 cells was 6.26.

The values above are taken from patent US9187458B2, “Cyanoquinoline derivatives” (Tianjin Hemay Bio-Tech Co., LTD., priority 2010, dated 2015).
